Series [1] deals with Tom70. Particulars: cited from earlier work.
Source text: First, we tested the ability of unlabeled Hsp90 and Tom20 peptides to compete with their HRP‐labeled analogues for binding to Tom70, the known partner for both Hsp90 and Tom20 proteins.
Series [2] deals with Tom70. In words: Dot-blot assay of Tom70 with HRP-conjugated Hsp90 and Tom20 peptides in presence of unconjugated peptides. It is filed as binding, human. The conditions noted are these: 20 μM unconjugated peptide. How it is done: (§1) In subsequent experiments, non‐fluorescent peptides were used. […] Cell impermeable Hsp90 peptide served as a treatment control.
Figure 6 In vitro and in situ analysis of interactions of 10‐amino‐acid peptides corresponding to C termini of Hsp90 and Tom20 with Tom70. (A) Dot‐blot assay of interactions between Tom70 and HRP‐conjugated 10‐amino‐acid peptides corresponding to C termini of Hsp90 and Tom20 in the presence of 20 μM of unconjugated peptides. (B) Fluorescence imaging of HEK293 cells in the presence of 20 μM of fluorescein‐labeled Hsp90, R9–Hsp90, Tom20 and R9–Tom20 peptides. (C) Inhibition of Tom20–Tom70 and Hsp90–Tom70 interactions with R9–Hsp90 and R9–Tom20 in HEK293 cells measured by PLA. n = 3. Graphs were created and SD values were calculated using PRISM, version 7.02. *P‐value < 0.05 compared to control; comparisons are based on one‐way ANOVA. (D) Inhibition of Tom20–Tom70 and Hsp90–Tom70 interactions with R9–Hsp90 and R9–Tom20 in HEK293 cells measured by mammalian two‐hybrid assay. n = 3. Graphs were created and SD values were calculated using PRISM, version 7.02. *P‐value < 0.05 compared to control; comparisons are based on one‐way ANOVA.

The target in series [3] is T1, AIP (Homo sapiens, UniProt O00170).
T1 sequence (O00170 1-330): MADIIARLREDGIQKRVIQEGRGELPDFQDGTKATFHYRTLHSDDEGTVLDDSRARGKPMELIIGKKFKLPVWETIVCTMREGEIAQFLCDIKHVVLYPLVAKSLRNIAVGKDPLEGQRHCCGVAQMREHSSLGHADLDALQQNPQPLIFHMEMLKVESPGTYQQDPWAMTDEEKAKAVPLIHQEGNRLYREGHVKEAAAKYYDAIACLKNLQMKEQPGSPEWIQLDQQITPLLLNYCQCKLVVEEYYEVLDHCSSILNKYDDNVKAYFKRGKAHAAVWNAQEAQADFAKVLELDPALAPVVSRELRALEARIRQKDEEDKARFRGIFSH
In words: Dot-blot competition assay: HRP-conjugated peptide vs unlabeled peptide on nitrocellulose-immobilized AIP.
Method: (§4) Full‐length cDNA clones for respective proteins were obtained from IMAGE consortium (SourceBioScience, Nottingham, UK) and PCR amplified with forward and reverse primers (Table 1) containing overhangs with appropriate restriction sites and cloned into pGEX6 vectors (GE Healthcare, Uppsala, Sweden). Inserts were sequence verified, and the plasmids were transformed into BL21 Escherichia coli strain. Glutathione‐S‐transferase (GST) fusion proteins were purified from 1 L overnight culture after 2 h of induction with 1 mM IPTG. Cells were pelleted, resuspended in 1× PBS and sonicated 3 × 20 s on ice. EDTA and protease inhibitor cocktail were added to prevent proteolysis. The suspension was centrifuged for 30 min at 50 000 g to remove cell debris, and supernatant was loaded onto a 1 mL GSTrap™ 4B column (GE Healthcare). After column washing with 30 mL PBS, GST fusion proteins were eluted with 2.5 mL 10 mM glutathione in PBS. Eluate was passed through a PD‐10 column (GE Healthcare) to remove free glutathione. To prepare GST‐tag‐free proteins, we performed overnight cleavage at 4 °C with PreScission protease (GE Healthcare) followed by passage through a GSTrap column to remove free GST protein. Average yield from 1 L starting culture was 1–5 mg of purified proteins. Protein‐containing fractions were collected, checked with SDS/PAGE and kept at −20 °C.
(§5) Peptides were dissolved in HEPES‐KOH buffer pH 7.2 at concentration of 1 mg·mL^−1 and incubated with equimolar amounts of activated horseradish peroxidase (HRP) (Lightning‐link® HRP labeling kit cat. 701‐004, from Innova Biosciences) for 5 min. Reaction was quenched with 0.1 M Tris/HCl, pH 7.5 for 10 min and the products were passed through PD‐10 columns (GE Healthcare). Dot‐blot experiments were performed using GST‐tag‐free proteins applied to the nitrocellulose membrane. After blocking of membrane with 3% BSA in TBS‐T buffer for 1 h and subsequent wash with TBS‐T, HRP‐conjugated peptides (1 × 500 times dilution) were applied and incubated for 1 h. After subsequent washing (3 × 10 min, TBS‐T), membrane was dried and signals were quantified using a digital Fujifilm LAS3000 imager and LAS3000 software. In competition experiments, increasing concentrations of unlabeled peptides were co‐incubated with peptide–HRP conjugates.
(§6) Each peptide was separately coupled to HRP.

In series [4] the target is T2, FKBP51 (Homo sapiens, UniProt Q13451).
T2 sequence (Q13451 1-457): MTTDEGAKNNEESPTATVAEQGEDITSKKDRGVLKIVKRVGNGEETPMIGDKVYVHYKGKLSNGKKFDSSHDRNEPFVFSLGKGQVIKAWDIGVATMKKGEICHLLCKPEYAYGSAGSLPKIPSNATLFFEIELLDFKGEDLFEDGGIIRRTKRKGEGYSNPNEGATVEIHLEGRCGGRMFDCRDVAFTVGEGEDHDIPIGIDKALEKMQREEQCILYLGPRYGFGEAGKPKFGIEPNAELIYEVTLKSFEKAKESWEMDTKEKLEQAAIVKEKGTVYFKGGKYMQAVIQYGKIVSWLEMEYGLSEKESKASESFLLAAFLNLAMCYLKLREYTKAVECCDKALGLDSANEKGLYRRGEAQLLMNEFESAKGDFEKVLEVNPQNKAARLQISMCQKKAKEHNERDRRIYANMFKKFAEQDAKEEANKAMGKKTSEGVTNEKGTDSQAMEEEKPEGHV
In words: Dot-blot competition assay: HRP-conjugated peptide vs unlabeled peptide on immobilized FKBP51.
Method: as §4, §5, §6

The subject of series [5] is Tom20–Tom70 interaction. In words: Mammalian two-hybrid assay (luciferase) of Tom20–Tom70 interaction in HEK293 cells. Particulars: peptide 20 μM added 4 h after transfection, 48 h, n = 3. It is filed as cell-based, human.
Source text: (§2) Tom70 sequence was PCR amplified and subcloned into pACT vector of CheckMate™ mammalian two‐hybrid system (Promega, Madison, WI, USA) using SalI/NotI restriction sites, and Hsp90 and Tom20 DNA sequences were PCR amplified and subcloned into pBIND vector using SalI/NotI restriction sites. Tom70‐pACT/Hsp90‐pBIND and Tom70‐pACT/Tom20‐pBIND were co‐transfected with pLuc plasmid in a 1 : 1 : 1 molar ratio into HEK293 cells using Lipofectamine 3000 transfection reagent (Invitrogen, Carlsbad, CA, USA) according to the manufacturer's protocol. Triplicate samples in 96‐well cell culture plates Corning (Tewskbury, MA, USA) were used in each experiment. Hsp90, R9–Hsp90, Tom20 and R9–Tom20 peptides at concentration 20 μM were added 4 h after transfection. HEK293 cells were cultivated for 48 h, washed twice with PBS and lysed with PBS containing 1% Triton X‐100. Luciferase expression was detected using a luciferase assay kit from BioThema (Huddinge, Sweden) on a 96‐well plate reader from Perkin Elmer (Upplands Väsby, Stockholm, Sweden).
as §1

Series [6] has as its system HEK293 cells. Particulars: N-terminally fluorescein-labeled peptides, 20 μM, fluorescence imaging. The text has this:
(§3) P < 0.05 was considered to be statistically significant. Data are presented as mean ± SEM.

The test system of series [7] is Tom20–Tom70 interaction. In words: Proximity ligation assay (PLA) of Tom20–Tom70 interaction in HEK293 cells. It is filed as cell-based, human. Particulars: non-fluorescent peptide, n = 3.
Source text: as §3, §1

In series [8] the test system is Hsp90–Tom70 interaction. In words: Mammalian two-hybrid assay (luciferase) of Hsp90–Tom70 interaction in HEK293 cells. It is filed as cell-based, human. Particulars: peptide 20 μM added 4 h after transfection, 48 h, n = 3.
Source text: as §2, §1

Series [9] has as its system Hsp90–Tom70 interaction. In words: Proximity ligation assay (PLA) of Hsp90–Tom70 interaction in HEK293 cells. It is filed as cell-based, human. Particulars: non-fluorescent peptide, n = 3.
Source text: as §3, §1

The text below walks through data of PMC6212638, “In silico identification and biochemical characterization of the human dicarboxylate clamp TPR protein interaction network” (FEBS Open Bio, 2018).

Broadly, the IC50 is the concentration that inhibits the measured activity by half. The low end stands for higher potency, the high end for lower potency.

With `CSCC[C@H](NC(=O)[C@H](CCCNC(=N)N)NC(=O)[C@H](CO)NC(=O)[C@H](C)NC(=O)[C@H](CC(=O)O)NC(=O)[C@@H](N)CCC(=O)O)C(=O)N[C@@H](CCC(=O)O)C(=O)N[C@@H](CCC(=O)O)C(=O)N[C@H](C(=O)N[C@@H](CC(=O)O)C(=O)O)C(C)C` [Hsp90β], the “affinity for Tom70 relative to 10-mer Tom20 peptide” value in [1] is recorded as “more than 10 fold”. Moreover, the “competition with HRP-conjugated Hsp90 peptide for Tom70 binding” value in series [2] was “effectively competes”. Further, in series [2], the “competition with HRP-conjugated Tom20 peptide for Tom70 binding” value is on record as “effectively competes”. Moreover, the figures for the IC50 in series [3] and in series [4] were 17.8 ± 1.35 µM and 18.9 ± 3 µM, respectively.
As for “H-RRRRRRRRREDASRMEEVD-OH [R9–Hsp90, cell‐permeant analog of the Hsp90 peptide containing a nine‐arginine N‐terminal tag]”, the “inhibition of Tom20–Tom70 interaction (mammalian two-hybrid, luciferase)” value in series [5] was “sensitive”. Also, in series [6], the “fluorescein staining of HEK293 cells (peptide translocation into the cells)” value is “resulted in HEK293 cells staining”. In addition, in [7], the “decrease of Tom20–Tom70 interaction signal (PLA)” value is recorded as “approximately 50%”. In addition, in series [8], the “inhibition of Hsp90–Tom70 interaction (mammalian two-hybrid, luciferase)” value was “inhibited”. The “decrease of Hsp90–Tom70 interaction signal (PLA)” value in series [9] is given as “approximately 50%”.
